According to article PMC6718478, “A Comprehensive Antimicrobial Activity Evaluation of the Recombinant Microcin J25 Against the Foodborne Pathogens Salmonella and E. coli O157:H7 by Using a Matrix of Conditions” (Frontiers in Microbiology, 2019):
Positions of bridges follow the written chain, without caps; N, C: chain ends. Residues, ends and D or L forms follow the SMILES beside them.

How the values were obtained:
chymotrypsin = test: Resistance to a single protease, inhibition zone read-out; assay type: in vitro ADME; conditions: chymotrypsin for 2 and 4 h; 1 × MIC; inhibition zone against S. Pullorum; three replicate experiments
Procedure: (§1) The resistance of recombinant MccJ25 to pepsin, trypsin and chymotrypsin was evaluated as described previously ([Chen et al., 2009]; [Meng et al., 2019]) with slight modification. The indicator Salmonella was prepared (approximately 1 × 10^7 CFU/mL), and 1 mL of bacterial inoculum was transferred into 9 mL of each medium with the recombinant MccJ25 and into corresponding control media without the recombinant MccJ25. LB agar inoculated with the indicator bacteria S. Pullorum (approximately 10^5 viable cells per mL) was poured over plates that had been fitted with Oxford cups to make wells. Then, 150 μL of a 1 × MIC final concentration of recombinant MccJ25 that had been previously treated under various conditions for 2 and 4 h were added to the wells. The agar overlays were incubated overnight at 37°C, and the inhibition zones were recorded.

pepsin = test: as above; assay type: in vitro ADME; conditions: pepsin for 2 and 4 h; 1 × MIC; inhibition zone against S. Pullorum; three replicate experiments
Procedure: as §1

trypsin = test: as above; assay type: in vitro ADME; conditions: trypsin for 2 and 4 h; 1 × MIC; inhibition zone against S. Pullorum; three replicate experiments
Procedure: as §1

S. Pullorum [1] = test: Antimicrobial activity after treatment with simulated gastric fluid (SGF); assay type: in vitro ADME, Salmonella Pullorum; conditions: simulated gastric fluid, 2, 4, and 6 h; 1 × MIC; inhibition zone; three replicate experiments
Procedure: (§2) Biological fluids (SGF; SIF) and serum were prepared as described previously ([Liu et al., 2013]; [Xia et al., 2015]). Then, assays of the antibacterial activity of recombinant MccJ25 in SGF, SIF and serum were performed. S. Pullorum was grown in Mueller-Hinton broth (MHB, Difco Laboratories, Detroit, MI, United States). One milliliter of bacterial inoculum was transferred into 9 mL of each medium with the recombinant MccJ25 and into corresponding control medium without the recombinant MccJ25. LB agar inoculated with the indicator bacteria S. Pullorum (approximately 10^5 viable cells per mL) was poured over plates fitted with Oxford cups to make wells. Hundred and fifty μL of a 1 × MIC final concentration of recombinant MccJ25 samples that had previously been treated with SGF, SIF and serum for 2, 4, and 6 h, respectively, were added to the wells. The agar overlays were incubated overnight at 37°C, and the inhibition zones were recorded.

S. Pullorum [2] = test: Antimicrobial activity after treatment with simulated intestinal fluid (SIF); assay type: in vitro ADME, Salmonella Pullorum; conditions: simulated intestinal fluid, 2, 4, and 6 h; 1 × MIC; inhibition zone; three replicate experiments
Procedure: as §2

S. Pullorum [3] = test: Antimicrobial activity after treatment with serum; assay type: in vitro ADME, Salmonella Pullorum; conditions: murine serum, 2, 4, and 6 h; 1 × MIC; inhibition zone; three replicate experiments
Procedure: as §2

How did the “antimicrobial activity after protease challenge” value (shortened to “antimicrobial activity”) (chymotrypsin) turn out when `CC[C@H](C)[C@H](NC(=O)CNC(=O)[C@@H](NC(=O)[C@H](Cc1ccccc1)NC(=O)[C@H](Cc1ccc(O)cc1)NC(=O)[C@@H]1CCC(=O)NCC(=O)NCC(=O)N[C@@H](C)C(=O)NCC(=O)N[C@@H](Cc2cnc[nH]2)C(=O)N[C@@H](C(C)C)C(=O)N2CCC[C@H]2C(=O)N1)C(C)C)C(=O)NCC(=O)N[C@H](C(=O)N1CCC[C@H]1C(=O)N[C@H](C(=O)N[C@@H](CO)C(=O)N[C@@H](Cc1ccccc1)C(=O)N[C@@H](Cc1ccc(O)cc1)C(=O)NCC(=O)O)[C@@H](C)CC)[C@@H](C)O` [recombinant MccJ25, microcin J25] (GGAGHVPEYFVGIGTPISFYG-OH; lactam N-8) was run?
The value was “maintained its antimicrobial activity”.

What about the “antimicrobial activity” value (pepsin) of the same compound?
The value was “maintained its antimicrobial activity”.

What about the “antimicrobial activity” value (trypsin) of the same compound?
Its value is “maintained its antimicrobial activity”.

What about the “growth inhibition of S. Pullorum after incubation with SGF” value (S. Pullorum [1]) of the same compound?
The value was “still inhibited the growth of S. Pullorum in a manner similar to that of recombinant MccJ25 alone”.

And the “growth inhibition of S. Pullorum after incubation with SIF” value (S. Pullorum [2])?
Its value is “still inhibited the growth of S. Pullorum in a manner similar to that of recombinant MccJ25 alone”.

And the “growth inhibition of S. Pullorum after incubation with serum” value (S. Pullorum [3])?
The value was “still inhibited the growth of S. Pullorum in a manner similar to that of recombinant MccJ25 alone”.
